# Test system: skeletal muscle of the rat (chronic ischemic)
# Test: Effect on the contractility of the skeletal muscle after chronic ischemia (tiring index)
# Type: in vivo, rat (male Wistar)
# Conditions: 6 mg/kg p.o. over 7 days, n = 4-6; tiring index = maximum contractility / residual force after 5 min stimulation
# Excerpt: 1) Effect on the Contractility of the Skeletal Muscle After Chronic Ischemia
# In recent years, a marked change has taken place in ideas about the pathophysiology of chronic peripheral arterial occlusive disease as scientific interest has to an increasing extent shifted from the macrocirculation to the microcirculation. Disturbances in the microcirculation therefore manifest themselves in an undersupply of substrates with tissue ischemia resulting therefrom which, in turn, leads to an impairment in the function of the extremity concerned. The logical consequence of this is that the target organ skeletal muscle comes more and more into the forefront. […] The clinical activity is in fact also consistently determined in humans with the aid of the painless walking distance on the moving walkway.
# Male Wistar rats having a body weight of 380 to 410 g were used as experimental animals. Under hexobarbital anesthesia (®Evipan--sodium, 200 mg/kg BW (=body weight) i.p.), a unilateral ligature of the right femoral artery was applied to the animals in the groin. After sprinkling penicillin sulfonamide powder for antibiotic wound care, the small operation wound was closed and the animals were continuously observed until they were completely awake. One week later, the administration of substance began by oral administration using a stomach tube (6 mg/kg BW, carboxymethylcellulose-sodium suspension) and was continued for 7 days (single administration per day, about 7h30 to 8h30). The contractility was measured 24 h after the last administration of substance in order to exclude acute effects, to be precise by the following experimental protocol:
# Superfusion with physiological saline solution (37° C.) was used to avoid drying out and cooling. The mean arterial blood pressure was recorded continuously via Statham (=blood pressure measuring device) by means of a cannulated caroted artery to control the physiological status of the animals during the experiment. All animals breathed spontaneously by means of an inserted tracheal tube.
# After these preparations, the muscle was made to contract (Stimulator I, Hugo Sachs, Federal Republic of Germany) by direct electrical stimulation (2.5 mA, 2 Hz). The absolute contractility in grams at various times of stimulation was used as the measured parameter. […] If the maximum contractility at the start of stimulation is now divided by the residual force remaining after 5 minutes' tiring stimulation, a "tiring index TI" for the muscle concerned can be calculated; the ability to tire here is larger the larger TI is numerically.
# 4 to 6 individual experiments were carried out for each test preparation.
row,Compound,TI of ischemic treated muscle
1,"Cn1cnc(S(=O)(=O)NCCCCCCNS(=O)(=O)c2cn(C)cn2)c1 [Example 54, 1,6-Bis(1-methyl-4-imidazolesulfonamido)hexane]",2.55
2,"Cl.Cn1cnc(S(=O)(=O)NCCCCN2CCOCC2)c1 [Example 10, N-(4-morpholinobutyl)-1-methyl-4-imidazolesulfonamide hydrochloride]",2.19
3,"Cn1cnc(S(=O)(=O)O)c1Cl [Example 1, 5-Chloro-1-methyl-4-imidazolesulfonic acid]",2.26
4,Cn1cnc(S(=O)(=O)N2CCN(c3ccc(O)cc3)CC2)c1Cl [Example 40],3.18
5,"Cl.Cn1ccnc1S(=O)(=O)NCCN1CCOCC1 [Example 30, N-(2-Morpholinoethyl)-1-methyl-2-imidazolesulfonamide hydrochloride]",2.82
6,"Cl.Cn1cncc1S(=O)(=O)NCCCN1CCOCC1 [Example 53, N-(3-Morpholino-1-propyl)-1-methyl-5-imidazolesulfonamide hydrochloride]",3.18

# Same assay, conditions: Rattus norvegicus, po, 168 h; 6 mg/kg p.o. over 7 days, n = 4-6; smaller value = more effective; read-out: Percentage change (TI of ischemic treated muscle vs TI of normal non-treated muscle)
row,Compound,change in vivo at 6 mg/kg [%]
1,"Cn1cnc(S(=O)(=O)NCCCCCCNS(=O)(=O)c2cn(C)cn2)c1 [Example 54, 1,6-Bis(1-methyl-4-imidazolesulfonamido)hexane]",37.8
2,"Cl.Cn1cnc(S(=O)(=O)NCCCCN2CCOCC2)c1 [Example 10, N-(4-morpholinobutyl)-1-methyl-4-imidazolesulfonamide hydrochloride]",-3.6
3,"Cn1cnc(S(=O)(=O)O)c1Cl [Example 1, 5-Chloro-1-methyl-4-imidazolesulfonic acid]",1.3
4,Cn1cnc(S(=O)(=O)N2CCN(c3ccc(O)cc3)CC2)c1Cl [Example 40],34.7
5,"Cl.Cn1ccnc1S(=O)(=O)NCCN1CCOCC1 [Example 30, N-(2-Morpholinoethyl)-1-methyl-2-imidazolesulfonamide hydrochloride]",-14.2
6,"Cl.Cn1cncc1S(=O)(=O)NCCCN1CCOCC1 [Example 53, N-(3-Morpholino-1-propyl)-1-methyl-5-imidazolesulfonamide hydrochloride]",-3.3

# Test system: not listed separately
# Test: Acute toxicity (LD50 range)
# Conditions: mouse, in vivo, ip, single administration, NMRI mice, 7 days
# Experimental: The determination of the LD50 ranges was carried out in standard fashion by means of the mortality occurring in the course of 7 days in NMRI mice after single intravenous (i.v.) or intraperitoneal (i.p.) administration (NMRI=NIH Medical Research Institute).
row,Compound,LD50 at 168 h [mg/kg]
1,"Cn1cnc(S(=O)(=O)NCCCCCCNS(=O)(=O)c2cn(C)cn2)c1 [Example 54, 1,6-Bis(1-methyl-4-imidazolesulfonamido)hexane]",> 1200
2,Cn1cnc(S(=O)(=O)N2CCN(c3ccc(O)cc3)CC2)c1Cl [Example 40],> 1200

# Same assay, conditions: mouse, in vivo, iv, single administration, NMRI mice, 7 days
row,Compound,LD50 at 168 h [mg/kg]
1,"Cl.Cn1cnc(S(=O)(=O)NCCCCN2CCOCC2)c1 [Example 10, N-(4-morpholinobutyl)-1-methyl-4-imidazolesulfonamide hydrochloride]",> 100
2,"Cn1cnc(S(=O)(=O)O)c1Cl [Example 1, 5-Chloro-1-methyl-4-imidazolesulfonic acid]",> 200
3,"Cl.Cn1ccnc1S(=O)(=O)NCCN1CCOCC1 [Example 30, N-(2-Morpholinoethyl)-1-methyl-2-imidazolesulfonamide hydrochloride]",> 100
4,"Cl.Cn1cncc1S(=O)(=O)NCCCN1CCOCC1 [Example 53, N-(3-Morpholino-1-propyl)-1-methyl-5-imidazolesulfonamide hydrochloride]",> 100

# Test system: laser-induced thrombosis in mesenterial arterioles
# Test: Inhibition of laser-induced thrombosis in mesenterial arterioles of the rat
# Type: in vivo, rat (female Sprague-Dawley)
# Conditions: Rattus norvegicus, po; 10 mg/kg p.o.; read-out: Percentage change vs control (inhibition of laser-induced thrombosis)
row,Compound,inhibition in vivo at 10 mg/kg [%]
1,"Cn1cnc(S(=O)(=O)NCCCCCCNS(=O)(=O)c2cn(C)cn2)c1 [Example 54, 1,6-Bis(1-methyl-4-imidazolesulfonamido)hexane]",17
2,"Cl.Cn1cnc(S(=O)(=O)NCCCCN2CCOCC2)c1 [Example 10, N-(4-morpholinobutyl)-1-methyl-4-imidazolesulfonamide hydrochloride]",38
3,"Cn1cnc(S(=O)(=O)O)c1Cl [Example 1, 5-Chloro-1-methyl-4-imidazolesulfonic acid]",13
4,Cn1cnc(S(=O)(=O)N2CCN(c3ccc(O)cc3)CC2)c1Cl [Example 40],17
5,"Cl.Cn1ccnc1S(=O)(=O)NCCN1CCOCC1 [Example 30, N-(2-Morpholinoethyl)-1-methyl-2-imidazolesulfonamide hydrochloride]",45
6,"Cl.Cn1cncc1S(=O)(=O)NCCCN1CCOCC1 [Example 53, N-(3-Morpholino-1-propyl)-1-methyl-5-imidazolesulfonamide hydrochloride]",18

# Source: patent US5232922A, “Imidazole compounds, processes for their preparation, pharmaceuticals based on these compounds and some intermediates” (priority 1990, dated 1993)
